Reference: patent US20110054033A1, “METHODS OF USING ABSCISIC ACID FOR AMELIORATING HYPERTENSION AND VASCULAR INFLAMMATION” (Virginia Tech Intellectual Properties, Inc., priority 2009, published 2011)

Assays:
ApoE-deficient mice = assay: Histology analyses of the aorta (areas, thickness, lesion severity); format: in vivo
Protocol: FIG. 4 are photos and graphs showing aortas collected on day 84 of dietary intervention. Representative photomicrographs (100×) of aortic root specimens from (A) control and (B) ABA-fed mice. (C) Analysis of lumenal areas and (D) tunica media areas were performed with aortic cross-sections using Image Pro Plus software. (E) Aortic thickness was analyzed as a ratio of the intima to the media. Gene expression in the aorta of (F) endothelial nitric oxide synthase (eNOS) and (G) 15-lipoxygenase (15-LOX) were measured as a ratio to the house-keeping gene β-actin. Data were analyzed as a completely randomized design.
FIG. 5 are photos and graphs showing histological examination of aortic lesions. ApoE −/− mice were fed high fat diets created with or without abscisic acid (ABA, 100 mg/kg diet). After 84 days aortas were excised and lesions were analyzed histologically according to methods described by van Vlijmen et al[13]. Representative photomicrographs (100×) of a (A) mild and (B) severe lesion are depicted. (C) The total number of mild (categories 1-3) and severe (categories 4-5) lesions from control and ABA-fed mice are shown. (D) Lesional areas, as a percent of total lumen area, for control and ABA-fed mice were calculated from histological sections with Image Pro Plus software. Data are represented as mean±standard error.
The aortic root sections used for histological analyses were perfusion-fixed with paraformaldehyde. Samples of aortas were cut transversally, stained with hematoxylin and eosin, and analyzed histologically. Areas for the lumen, tunica media, and aortic lesions and the thicknesses of the tunica intima and media were assessed using Image Pro Plus 6.1 software (Media Cybernetics, Bethesda, Md.). For thickness analyses, eight different measurements from the intima and media were taken using previously described methods (Hazell et al., Free Radic. Biol. Med. 31:1254-62, 2001). For semiquantitative assessment of lesion severity, methods described by van Vlijmen et al were used (van Vlijmen et al., J. Clin. Invest. 93:1403-10, 1994). Briefly, lesions were classified into five categories (1) early fatty streak: per section up to 10 foam cells present in the intima, (2) regular fatty streak: more than 10 cells present in the intima, (3) mild plaque: extension of foam cells into the media and mild fibrosis of the media without significant loss in architecture, (4) moderate plaque: foam cells in media, fibrosis, cholesterol clefts, mineralization, and/or necrosis of the media, (5) severe plaque: as 4 but more extensive and deeper in the media. Scoring classifications were applied to 15 lesions from control and ABA-fed mice. Lesions falling in categories 1-3 were classified as mild and 4-5 as severe.

[1] = Body weight and fasted plasma metabolic parameters of ApoE-deficient mice fed high-fat diet with or without ABA; format: in vivo
Protocol: Five-week old ApoE −/− mice (n=40) were housed at the animal facilities at Virginia Polytechnic Institute and State University in a room maintained at 75° F., with a 12:12 h light-dark cycle starting from 6:00 AM. All experimental procedures were approved by the Institutional Animal Care and Use Committee of Virginia Polytechnic Institute and State University and met or exceeded requirements of the Public Health Service/National Institutes of Health and the Animal Welfare Act. Mice were fed a high saturated fat (AIN-93G-based) diet containing 19.6% fat and 0.2% total cholesterol and obtaining 40.1% of Kcal from fat (4.4 Kcal/g) with or without 100 mg/kg of a racemic ABA mixture (Guri et al., J. Nutr. Biochem. 19:216-28, 2008). Systolic blood pressure was assessed on days 0, 28, 56, and 72. On day 84, fasted mice (12 h) were sacrificed by carbon dioxide asphyxiation and blood was withdrawn through cardiac puncture. Glucose concentrations of whole blood were assessed with an Accu-Chek® Glucometer (Roche, Indianapolis, Ind.) and plasma insulin was measured through insulin ELISA (Millipore, Billerica, Mass.). Aortas were collected for analysis of immune cell infiltration, histological evaluation of atherosclerotic lesions, and gene expression analyses.
Plasma cholesterol and triglyceride levels were measured using kits from Raichem (San Diego, Calif.) adapted for microtiter plate assays. Plasma free fatty acids were measured using the NEFA-HR(2) kit from Wako. Fast performance liquid chromatography (FPLC) separation of plasma lipoproteins was performed on a Superose 6 column using buffer containing 0.15M NaCl, 0.01M Na2HPO4 and 1 mM EDTA at a flow rate of 0.5 ml/min. Forty 0.5 ml fractions were collected and cholesterol was measured in fractions 10-40. Fractions 15-20 contain VLDL, fractions 21-27 contain LDL and fractions 28-34 contain HDL.

[2] = ApoE-deficient mice, high-fat diet, 84 days
[3] = fasted plasma, day 84, ABA 100 mg/kg diet, least square mean ± standard error
[4] = fasted plasma, day 84, ABA 100 mg/kg diet, least square mean ± standard error, * P<0.05 vs control

CC1=CC(=O)CC(C)(C)C1(O)/C=C/C(C)=C\C(=O)O (racemic) [ABA, abscisic acid]
Lesion area as a percent of total lumenal area vs control (ApoE-deficient mice; day 84): significantly decreased
Aortic luminal area vs control (ApoE-deficient mice; day 84, aortic cross-sections): no significant differences
Aortic tunica media area vs control (ApoE-deficient mice; day 84, aortic cross-sections): no significant differences
Intima to media ratio vs control (ApoE-deficient mice; day 84, aortic root): significantly lower
Number of mild lesions (categories 1-3) (ApoE-deficient mice; of 15 lesions scored, day 84): 10
Number of severe lesions (categories 4-5) (ApoE-deficient mice; of 15 lesions scored, day 84, control-fed mice 8 of 15): 5
Body Weight ([1]; ApoE-deficient mice, high-fat diet with ABA 100 mg/kg, day 84, least square mean ± standard error): 30.8 ± 0.63 g
Effect on body weights vs control diet [1, 2]: no significant effect
Effect on insulin vs control diet [1, 2]: no significant effect
Effect on plasma glucose vs control diet [1, 2]: no significant effect
Effect on plasma non-esterified fatty acid concentration vs control diet [1, 2]: significantly raise
Effect on plasma triglyceride (TG) concentration vs control diet [1, 2]: significantly raise
Effect on total cholesterol levels vs control diet [1, 2]: no significant effect
Glucose ([1]; fasted (12 h), day 84, ABA 100 mg/kg diet, least square mean ± standard error): 194.6 ± 11.9 mg/dL
Cholesterol [1, 3]: 339.0 ± 25.1 mg/dL
Insulin [1, 3]: 0.432 ± 0.05 ng/mL
NEFAs (non-esterified fatty acids) [1, 4]: 2.05 ± 0.17* mequiv./mL
TGs (triglycerides) [1, 4]: 136.1 ± 12.3* mg/dL
HOMA-IR (homeostasis model assessment-insulin resistance) ([1]; fasted, day 84, ABA 100 mg/kg diet, least square mean ± standard error): 4.93 ± 0.76
